Tests used:
Type in all cases: in vivo
[1] = test system: barnyardgrass (Echinochloa crus-galli); test: Test G Post-Emergence Protocol; conditions: Echinochloa crus-galli, post-emergence, 312 h; for pest or weed control at 15.625 g/ha: 15.625 g ai/ha, evaluated after 13 days (100=total damage to plant; 0=no damage to plant), read-out: Barnyardgrass damage rating; for pest or weed control at 62.5 g/ha: 62.5 g ai/ha, read-out: Barnyardgrass damage rating (100=total damage to plant; 0=no damage to plant); for pest or weed control at 62.5 g/ha / pest or weed control at 250 g/ha: evaluated after 13 days; for pest or weed control at 250 g/ha: 250 g ai/ha, read-out: damage to plant, Barnyardgrass (100=total damage to plant; 0=no damage to plant)
How it was run: (§1)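 Seedlings grown 8 days in soil in a glasshouse (24/16 °C day/night, 14 h light, 65% humidity) were sprayed post-emergence with compound in acetone/water 50:50 plus 0.5% Tween 20 at 15.625, 62.5 or 250 g/ha. Damage was scored after 13 days on a 0–100 scale (100 = total damage).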

[2] = test system: redroot pigweed (Amaranthus retroflexus); test: Test G Post-Emergence Protocol; conditions: Amaranthus retroflexus, post-emergence, 312 h; for pest or weed control at 15.625 g/ha: 15.625 g ai/ha, evaluated after 13 days (100=total damage to plant; 0=no damage to plant), read-out: Pigweed, Redroot damage rating; for pest or weed control at 62.5 g/ha: 62.5 g ai/ha, read-out: Pigweed, Redroot damage rating (100=total damage to plant; 0=no damage to plant); for pest or weed control at 62.5 g/ha / pest or weed control at 250 g/ha: evaluated after 13 days; for pest or weed control at 250 g/ha: 250 g ai/ha, read-out: damage to plant, Pigweed, Redroot (100=total damage to plant; 0=no damage to plant)
How it was run: as §1

[3] = test system: ivy-leaved morning glory (Ipomoea hederacea); test: Test G Post-Emergence Protocol; conditions: Ipomoea, post-emergence, 312 h; for pest or weed control at 15.625 g/ha: 15.625 g ai/ha, evaluated after 13 days (100=total damage to plant; 0=no damage to plant), read-out: Morningglory, Ivy-leaved damage rating; for pest or weed control at 62.5 g/ha: 62.5 g ai/ha, read-out: Morningglory, Ivy-leaved damage rating (100=total damage to plant; 0=no damage to plant); for pest or weed control at 62.5 g/ha / pest or weed control at 250 g/ha: evaluated after 13 days; for pest or weed control at 250 g/ha: 250 g ai/ha, read-out: damage to plant, Morningglory, Ivy-leaved (100=total damage to plant; 0=no damage to plant)
How it was run: as §1

[4] = test system: velvetleaf (Abutilon theophrasti); test: Test G Post-Emergence Protocol; conditions: Abutilon theophrasti, post-emergence, 312 h; for pest or weed control at 15.625 g/ha: 15.625 g ai/ha, evaluated after 13 days (100=total damage to plant; 0=no damage to plant), read-out: Velvetleaf damage rating; for pest or weed control at 62.5 g/ha: 62.5 g ai/ha, read-out: Velvetleaf damage rating (100=total damage to plant; 0=no damage to plant); for pest or weed control at 62.5 g/ha / pest or weed control at 250 g/ha: evaluated after 13 days; for pest or weed control at 250 g/ha: 250 g ai/ha, read-out: damage to plant, Velvetleaf (100=total damage to plant; 0=no damage to plant)
How it was run: as §1

corn (Zea mays) [5] = test: Test G Post-Emergence Protocol; conditions: Zea mays, post-emergence, 312 h; for plant injury at 15.625 g/ha: 15.625 g ai/ha, evaluated after 13 days (100=total damage to plant; 0=no damage to plant), read-out: Corn damage rating; for plant injury at 62.5 g/ha: 62.5 g ai/ha, read-out: Corn damage rating (100=total damage to plant; 0=no damage to plant); for plant injury at 62.5 g/ha / plant injury at 250 g/ha: evaluated after 13 days; for plant injury at 250 g/ha: 250 g ai/ha, read-out: damage to plant, Corn (100=total damage to plant; 0=no damage to plant)
How it was run: as §1

[6] = test system: giant foxtail (Setaria faberi); test: Test G Post-Emergence Protocol; conditions: Setaria faberi, post-emergence, 312 h; for pest or weed control at 15.625 g/ha: 15.625 g ai/ha, evaluated after 13 days (100=total damage to plant; 0=no damage to plant), read-out: Foxtail, Giant damage rating; for pest or weed control at 62.5 g/ha: 62.5 g ai/ha, read-out: Foxtail, Giant damage rating (100=total damage to plant; 0=no damage to plant); for pest or weed control at 62.5 g/ha / pest or weed control at 250 g/ha: evaluated after 13 days; for pest or weed control at 250 g/ha: 250 g ai/ha, read-out: damage to plant, Foxtail, Giant (100=total damage to plant; 0=no damage to plant)
How it was run: as §1

[7] = test system: barnyardgrass (Echinochloa crus-galli); test: Test G Pre-Emergence Protocol; conditions: Echinochloa crus-galli, pre-emergence, 312 h, evaluated after 13 days; for pest or weed control at 15.625 g/ha: 15.625 g ai/ha, read-out: Barnyard grass damage rating (100=total damage to plant; 0=no damage to plant); for pest or weed control at 62.5 g/ha: 62.5 g ai/ha, 100=total damage to plant, 0=no damage to plant, read-out: plant damage rating, Barnyardgrass; for pest or weed control at 250 g/ha: 250 g ai/ha, read-out: Barnyardgrass damage rating (100=total damage to plant; 0=no damage to plant)
How it was run: (§2)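 Herbicidal effect was rated 13 days post-application on a scale where 100 equals total damage. Spraying took place the day after sowing, using 15.625, 62.5 or 250 g/ha of compound in a 50:50 acetone/water solution with 0.5% Tween 20.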

[8] = test system: redroot pigweed (Amaranthus retroflexus); test: Test G Pre-Emergence Protocol; conditions: Amaranthus retroflexus, pre-emergence, 312 h, evaluated after 13 days; for pest or weed control at 15.625 g/ha: 15.625 g ai/ha; for pest or weed control at 15.625 g/ha / pest or weed control at 250 g/ha: read-out: Pigweed, Redroot damage rating (100=total damage to plant; 0=no damage to plant); for pest or weed control at 62.5 g/ha: 62.5 g ai/ha, 100=total damage to plant, 0=no damage to plant, read-out: plant damage rating, Pigweed, Redroot; for pest or weed control at 250 g/ha: 250 g ai/ha
How it was run: as §2

[9] = test system: ivy-leaved morning glory (Ipomoea hederacea); test: Test G Pre-Emergence Protocol; conditions: Ipomoea, pre-emergence, 312 h, evaluated after 13 days; for pest or weed control at 15.625 g/ha: 15.625 g ai/ha, read-out: Morning-glory, Ivy-leaved damage rating (100=total damage to plant; 0=no damage to plant); for pest or weed control at 62.5 g/ha: 62.5 g ai/ha, 100=total damage to plant, 0=no damage to plant, read-out: plant damage rating, Morningglory, Ivy-leaved; for pest or weed control at 250 g/ha: 250 g ai/ha, read-out: Morningglory, Ivy-leaved damage rating (100=total damage to plant; 0=no damage to plant)
How it was run: as §2

[10] = test system: velvetleaf (Abutilon theophrasti); test: Test G Pre-Emergence Protocol; conditions: Abutilon theophrasti, pre-emergence, 312 h, evaluated after 13 days; for pest or weed control at 15.625 g/ha: 15.625 g ai/ha; for pest or weed control at 15.625 g/ha / pest or weed control at 250 g/ha: read-out: Velvetleaf damage rating (100=total damage to plant; 0=no damage to plant); for pest or weed control at 62.5 g/ha: 62.5 g ai/ha, 100=total damage to plant, 0=no damage to plant, read-out: plant damage rating, Velvetleaf; for pest or weed control at 250 g/ha: 250 g ai/ha
How it was run: as §2

corn (Zea mays) [11] = test: Test G Pre-Emergence Protocol; conditions: Zea mays, pre-emergence, 312 h, evaluated after 13 days; for plant injury at 15.625 g/ha: 15.625 g ai/ha; for plant injury at 15.625 g/ha / plant injury at 250 g/ha: read-out: Corn damage rating (100=total damage to plant; 0=no damage to plant); for plant injury at 62.5 g/ha: 62.5 g ai/ha, 100=total damage to plant, 0=no damage to plant, read-out: plant damage rating, Corn; for plant injury at 250 g/ha: 250 g ai/ha
How it was run: as §2

[12] = test system: giant foxtail (Setaria faberi); test: Test G Pre-Emergence Protocol; conditions: Setaria faberi, pre-emergence, 312 h, evaluated after 13 days; for pest or weed control at 15.625 g/ha: 15.625 g ai/ha; for pest or weed control at 15.625 g/ha / pest or weed control at 250 g/ha: read-out: Foxtail, Giant damage rating (100=total damage to plant; 0=no damage to plant); for pest or weed control at 62.5 g/ha: 62.5 g ai/ha, 100=total damage to plant, 0=no damage to plant, read-out: plant damage rating, Foxtail, Giant; for pest or weed control at 250 g/ha: 250 g ai/ha
How it was run: as §2

Structure (SMILES) | pest or weed control at 15.625 g/ha [1] [%] | pest or weed control at 62.5 g/ha [1] [%] | pest or weed control at 250 g/ha [1] [%] | pest or weed control at 15.625 g/ha [2] [%] | pest or weed control at 62.5 g/ha [2] [%] | pest or weed control at 250 g/ha [2] [%] | pest or weed control at 15.625 g/ha [3] [%] | pest or weed control at 62.5 g/ha [3] [%] | pest or weed control at 250 g/ha [3] [%] | pest or weed control at 15.625 g/ha [4] [%] | pest or weed control at 62.5 g/ha [4] [%] | pest or weed control at 250 g/ha [4] [%] | plant injury at 15.625 g/ha (corn (Zea mays) [5]) [%] | plant injury at 62.5 g/ha (corn (Zea mays) [5]) [%] | plant injury at 250 g/ha (corn (Zea mays) [5]) [%] | pest or weed control at 15.625 g/ha [6] [%] | pest or weed control at 62.5 g/ha [6] [%] | pest or weed control at 250 g/ha [6] [%] | pest or weed control at 15.625 g/ha [7] [%] | pest or weed control at 62.5 g/ha [7] [%] | also measured
CN1C[C@@H](c2ccc(C(F)(F)F)cc2)[C@H](C(=O)Nc2ncccn2)C1=O (racemic) [Compound 1564] | 0 | 0 | 20 | 0 | 0 | 10 | 0 | 0 | 0 | 0 | 0 | 0 | 0 | 0 | 10 | 0 | 0 | 10 | 0 | 0 | pest or weed control at 250 g/ha [7]: 0%; pest or weed control at 15.625 g/ha [8]: 0%; pest or weed control at 62.5 g/ha [8]: 0%; pest or weed control at 250 g/ha [8]: 0%; pest or weed control at 15.625 g/ha [9]: 0%; pest or weed control at 62.5 g/ha [9]: 0%; pest or weed control at 250 g/ha [9]: 0%; pest or weed control at 15.625 g/ha [10]: 0%; pest or weed control at 62.5 g/ha [10]: 0%; pest or weed control at 250 g/ha [10]: 0%; plant injury at 15.625 g/ha (corn (Zea mays) [11]): 0%; plant injury at 62.5 g/ha (corn (Zea mays) [11]): 0%; plant injury at 250 g/ha (corn (Zea mays) [11]): 10%; pest or weed control at 15.625 g/ha [12]: 0%; pest or weed control at 62.5 g/ha [12]: 0%; pest or weed control at 250 g/ha [12]: 0%
COc1cncc(NC(=O)[C@@H]2C(=O)N(C)C[C@H]2c2ccc(C(F)(F)F)cc2)n1 (racemic) [Compound 1565] | 0 | 0 | 10 | 0 | 0 | 0 | 0 | 0 | 0 | 0 | 0 | 30 | 0 | 0 | 10 | 0 | 0 | 50 | 0 | 0 | pest or weed control at 250 g/ha [7]: 10%; pest or weed control at 15.625 g/ha [8]: 0%; pest or weed control at 62.5 g/ha [8]: 0%; pest or weed control at 250 g/ha [8]: 10%; pest or weed control at 15.625 g/ha [9]: 0%; pest or weed control at 62.5 g/ha [9]: 0%; pest or weed control at 250 g/ha [9]: 0%; pest or weed control at 15.625 g/ha [10]: 0%; pest or weed control at 62.5 g/ha [10]: 0%; pest or weed control at 250 g/ha [10]: 0%; plant injury at 15.625 g/ha (corn (Zea mays) [11]): 0%; plant injury at 62.5 g/ha (corn (Zea mays) [11]): 0%; plant injury at 250 g/ha (corn (Zea mays) [11]): 0%; pest or weed control at 15.625 g/ha [12]: 0%; pest or weed control at 62.5 g/ha [12]: 0%; pest or weed control at 250 g/ha [12]: 60%
CN1C[C@@H](c2ccc(C(F)(F)F)cc2)[C@H](C(=O)Nc2cnnc(Cl)c2Cl)C1=O (racemic) [Compound 1567] | 0 | 0 | 10 | 0 | 0 | 0 | 0 | 0 | 0 | 0 | 0 | 0 | 0 | 0 | 0 | 0 | 0 | 0 | 0 | 0 | pest or weed control at 250 g/ha [7]: 0%; pest or weed control at 15.625 g/ha [8]: 0%; pest or weed control at 62.5 g/ha [8]: 0%; pest or weed control at 250 g/ha [8]: 0%; pest or weed control at 15.625 g/ha [9]: 0%; pest or weed control at 62.5 g/ha [9]: 0%; pest or weed control at 250 g/ha [9]: 0%; pest or weed control at 15.625 g/ha [10]: 0%; pest or weed control at 62.5 g/ha [10]: 0%; pest or weed control at 250 g/ha [10]: 0%; plant injury at 15.625 g/ha (corn (Zea mays) [11]): 0%; plant injury at 62.5 g/ha (corn (Zea mays) [11]): 0%; plant injury at 250 g/ha (corn (Zea mays) [11]): 0%; pest or weed control at 15.625 g/ha [12]: 0%; pest or weed control at 62.5 g/ha [12]: 0%; pest or weed control at 250 g/ha [12]: 0%

Reference: patent publication US12077503B2, “Substituted cyclic amides and their use as herbicides” (FMC CORPORATION, priority 2015, dated 2024)
